Marks after values point to notes of the source that are not given here. Side chains are listed from the residue outwards. Ends that are not written are not given here.
Legend:
[1] = system: rats with stroke; assay: Cerebral infarction volume after immediate treatment of stroke (TTC staining); type: in vivo, SD rats; details: n = 10
Experimental: After the rats were awake for 24 h and assessed for their degree of damage in neural function in Experimental example 6, they were anesthesized with urethane followed by immediate decapitation and removal of the brain. Brain tissues were kept in a −20° C. refrigerator for 2 h, and coronal sections of about 2 mm were successively sliced from the prefrontal end for a total of 6 sections, and then placed into a 2% TTC solution to incubate in darkness at 37° C. for 30 min. The color change in brain sections was observed: normal brain tissues were stained red by TTC, while ischemic brain tissues, i.e., brain tissues with infracts, appeared in a white color. Photographs were taken by using a digital camera and processed with SPSS statistics software, and the volume of infarction in brain tissues and the volume of normal brain tissues in the coronal sections were calculated.

[2] = system: thrombus; assay: In vivo thrombolysis, rat arteriovenous bypass thrombolysis model; set-up: species or system SD rats; details: after 1 h, n = 10
Experimental: SD rats (male, 220 to 230 g) were anaesthetized by intraperitoneal injection of a urethane solution at a dosage of 1200 mg/kg. The anaesthetized rats were fixed in a supine position, and the right common carotid artery was dissected, clamped at the proximal end with an arterial clip, and penetrated with a suture at the proximal and distal ends, respectively. The suture at the distal end is clipped tightly by a hemostatic clamp at the fur. Cannulation was performed at the distal end, the arterial clamp was removed, and about 1 ml arterial blood was discharged into a 1 ml eppendorf. 0.1 ml rat arterial blood was injected into a vertically fixed glass tube (15 mm in length, with an inner diameter of 2.5 mm and an outer diameter of 5.0 mm, sealed with a rubber stopper at the bottom), into which was immediately inserted a thrombus immobilization screw made of stainless steel. […] 15 min after the blood was coagulated, the rubber stopper at the bottom of the glass tube was removed, the stem of the thrombus immobilization screw was nipped by forceps, and the thrombus-wrapped thrombus immobilization screw was carefully taken out of the glass tube and then accurately weighed.
A bypass cannula was composed of 3 segments. The middle segment was a polyethylene tubing having a length of 60.0 mm and an inner diameter of 3.5 mm. The segments on both ends were similar polyethylene tubes having a length of 100.0 mm, an inner diameter of 1.0 mm and an outer diameter of 2.0 mm, one end of which was pulled to form a tip, with an outer diameter of 1.0 mm, that could be inserted into the rat carotid artery or vein, and the other end of which was sheathed by a polyethylene tube having a length of 7.0 mm and an outer diameter of 3.5 mm (thickened in order to be inserted into the polyethylene tubing of the middle segment). The inner wall of the 3-segment cannula was entirely silylated (with 1% silicone oil in ethyl ether). The thrombus-wrapped thrombus immobilization screw was placed into the polyethylene tubing of the middle segment, and both ends of the tubing sheathed the thickened ends of the two polyethylene tubes. The cannula was filled with a heparin solution in normal saline (50 IU/kg) through the tip end by using an injector and was ready for use. The trachea of the anaesthetized rat was then dissected and tracheal cannulation was performed. The left external carotid vein of the rat was dissected, and penetrated with a suture at the proximal and distal ends, respectively. An uneven open incision was careful made on the exposed left external carotid vein, and the tip of the bypass cannula prepared as described above was inserted into the proximal end of the open incision in the left external carotid vein, away from the stem of the thrombus immobilization screw in the middle segment of the bypass cannula (which accommodated the accurately weighed thrombus immobilization screw). A precise amount of heparin in saline (50 IU/kg) was injected through the tip at the other end by using an injector. At this moment, without removing the injector from the ethylene tube, the tubing between the injector and the polyethylene tube was clamped with forceps. The blood flow was stopped by clamping the proximal end of the right common carotid artery with an arterial clip, and an uneven open incision was cut carefully across the common carotid artery near the clip. The injector was pulled out of the tip of the polyethylene tube, and the tip of the polyethylene tube was then inserted into the proximal end of the artery open incision. Both ends of the bypass cannula were fixed to the artery or vein with #4 sutures. […]

[3] = system: thrombus from rat arterial blood; assay: In vitro thrombolysis; set-up: species or system SD rats; details: 2 h at 37° C., n = 6
Experimental: SD rats (male, 350 to 400 g) were anaesthetized by intraperitoneal injection of a urethane solution at a dosage of 1200 mg/kg. The anaesthetized rats were fixed in a supine position, and the right common carotid artery was dissected, clamped at the proximal end with an arterial clip, and penetrated with a suture at the proximal and distal ends, respectively. The suture at the distal end is clipped tightly by a hemostatic clamp at the fur. Cannulation was performed at the distal end, the artery clamp was removed, and the total arterial blood was discharged into a 50 ml container previously treated with silicone oil. […] rat arterial blood was injected into a vertically fixed glass tube (20 mm in length, with an inner diameter of 4 mm and an outer diameter of 5 mm, sealed with a rubber stopper at the bottom), into which was immediately inserted a thrombus immobilization screw made of stainless steel. […] 40 min after the blood was coagulated, the rubber stopper at the bottom of the glass tube was removed, the stem of the thrombus immobilization screw was nipped by forceps, and the thrombus-wrapped thrombus immobilization screw was carefully taken out from the glass tube. The screw was then suspended and dipped in triple-distilled water to remove excessive blood, and accurately weighed after 1 h. The thrombus was suspended in 8 mL of normal saline, or a solution of compounds Ia-Il in normal saline (at a concentration of 100 nM), or a solution of ARPAK (SEQ. ID NO. 4), GRPAK (SEQ. ID NO. 5), RPAK (SEQ. ID NO. 3) or PAK in normal saline (at a concentration of 100 nM), or a solution of urokinase in normal saline (100 IU/mL), then shaked at 37° C. in a thermostatic shaker (63 r/min), and removed after 2 h and accurately weighed to determine the weight of the thrombus.

[4] = system: euglobulin clot; assay: Euglobulin clot lysis; type: biochemical, Pig; details: after 4 h, n = 3
Experimental: Pig blood was taken and mixed with 3.8% sodium citrate in a volume ratio of 9:1, immediately centrifuged at 3000 r/min for 10 min, and platelet-poor plasma was separated. 2 mL platelet-poor pig plasma and 36 mL ultrapure water were added into a 50 mL centrifuge tube. In each tube, 0.4 mL acetic acid (1%) was added and thoroughly mixed, and the tube was placed in a 4° C. refrigerator for 10 min and then centrifuged at 3000 r/min for 10 min. The centrifuge tubes were inverted, and then the inner wall of the tubes was dried using a filter paper after the liquid was drained. The euglobuin pellets resulting from centrifugation was freeze-dried for about 40 min and scratched out. About 35 mg euglobuin was taken and dissolved in 7 ml borax buffer (pH 9.28). The euglobuin were mostly dissolved after 1 h, into which 0.7 mL CaCl2 solution (25 mM) was added, and immediately plated on a 10×10 cm glass plate with a thickness of about 1 mm. After clot formation, 10 μL normal saline, or 10 μL of a solution of one of compounds Ia to Il in normal saline (1 mM) or 10 μL of a urokinase solution in normal saline (0.8 mg/mL) was pipetted and spotted onto the clot plate, with an interval between every two drops more than 1.5 cm, and each sample was spotted 3 times.

Row | Substance | Percentage of infarction volume (Mean ± SD %) [1] | Weight reduction in thrombus (Mean ± SD mg) ([2]; 0.1 μmol/kg) | Weight reduction in thrombus (Mean ± SD mg) ([3]; 100 nM) | Diameter (Mean ± SD mm) of euglobulin clot lysis ([4]; 10 μL of 1 mM solution) | Percentage of infarction volume (Mean ± SD %) ([1]; urokinase 20000 IU/kg, immediate treatment) | Weight reduction in thrombus (Mean ± SD mg) ([2]; urokinase 20000 IU/kg) | Weight reduction in thrombus (Mean ± SD mg) ([3]; urokinase 100 IU/mL) | Diameter (Mean ± SD mm) of euglobulin clot lysis ([4]; 10 μL of urokinase 0.8 mg/mL)
1 | 1,3-dioxo-2-{4′-oxyacetyl-[N^ω-(Arg-Pro-Ala-Lys)-Lys-Arg-Gly-Asp-Ser]phenyl}-4,4,5,5-tetramethylimidazoline [Ig] | 6.40 ± 0.28% | 16.35 ± 2.42 mg | 27.83 ± 2.56 mg | 5.2 mm | – | – | – | –
2 | 1,3-dioxo-2-{4′-oxyacetyl-[N^ω-(Gly-Arg-Pro-Ala-Lys)-Lys-Arg-Gly-Asp-Ser]phenyl}-4,4,5,5-tetramethylimidazoline | 8.21 ± 1.91% | 14.17 ± 3.55 mg | 14.17 ± 3.55 mg | 5.2 mm | – | – | – | –
3 | 1,3-dioxo-2-{4′-oxyacetyl-[N^ω-(Arg-Pro-Ala-Lys)-Lys-Arg-Gly-Asp-Phe]phenyl}-4,4,5,5-tetramethylimidazoline [Ii] | 7.06 ± 1.08% | 15.73 ± 2.95 mg | 24.83 ± 1.17 mg | 4.0 mm | – | – | – | –
4 | 1,3-dioxo-2-{4′-oxyacetyl-[N^ω-(Ala-Arg-Pro-Ala-Lys)-Lys-Arg-Gly-Asp-Ser]phenyl}-4,4,5,5-tetramethylimidazoline [Ia] | 7.21 ± 0.82% | 15.39 ± 3.19 mg | 28.50 ± 2.59 mg | 4.0 mm | – | – | – | –
5 | 1,3-dioxo-2-{4′-oxyacetyl-[N^ω-(Arg-Pro-Ala-Lys)-Lys-Arg-Gly-Asp-Val]phenyl}-4,4,5,5-tetramethylimidazoline [Ih] | 7.35 ± 1.14% | 15.37 ± 1.82 mg | 29.33 ± 3.01 mg | 4.2 mm | – | – | – | –
6 | urokinase | – | – | – | – | 11.00 ± 2.42 ^b % | 18.02 ± 2.32^a mg | 58.33 ± 4.08^a mg | 10.7 mm
7 | 1,3-dioxo-2-{4′-oxyacetyl-[N^ω-(Ala-Arg-Pro-Ala-Lys)-Lys-Arg-Gly-Asp-Val]phenyl}-4,4,5,5-tetramethylimidazoline [Ib] | 7.13 ± 0.83% | 14.35 ± 2.95 mg | 28.17 ± 2.31 mg | 5.2 mm | – | – | – | –
8 | 1,3-dioxo-2-{4′-oxyacetyl-[N^ω-(Gly-Arg-Pro-Ala-Lys)-Lys-Arg-Gly-Asp-Phe]phenyl}-4,4,5,5-tetramethylimidazoline [If] | 7.47 ± 1.31% | 15.29 ± 3.36 mg | 15.29 ± 3.36 mg | 4.5 mm | – | – | – | –
9 | 1,3-dioxo-2-{4′-oxyacetyl-[N^ω-(Pro-Ala-Lys)-Lys-Arg-Gly-Asp-Phe]phenyl}-4,4,5,5-tetramethylimidazoline (K([Lys-Ala-Pro])RGDF; not fully specified (N-terminus); also: 4′-oxyacetylphenyl-1,3-dioxo-4,4,5,5-tetramethylimidazoline (nitronyl nitroxide) conjugate, attachment amine not clear) [Il] | 6.56 ± 0.41% | 16.21 ± 2.84 mg | 25.83 ± 2.31 mg | 4.2 mm | – | – | – | –
